Experimental data published in patent US7205301B2, “Microbiocidal N-phenyl-n-[4-(4-pyridyl)-2-pyrimidin-2-yl]-amine derivatives” (Syngenta Crop Protection, Inc., priority 2001, dated 2007).

Key:
Assay type in all cases: in vivo
Botrytis cinerea [1] = assay: Example B-7: Botrytis cinerea / grape (Botrytis on grapes); settings: 72 h, 0.02% active substance, spray, grape seedlings cv. Gutedel, inoculated two days after application, assessed after 3 days incubation, read-out: control of the fungal infection
Procedure: Botrytis cinerea/Grape (Botrytis on Grapes) 5 week old grape seedlings cv. Gutedel are treated with the formulated test compound (0.02% active substance) in a spray chamber. Two days after application grape plants are inoculated by spraying a spore suspension (1.5×10^5 conidia/ml) on the test plants. After an incubation period of 3 days at +21° C. and 95% r. h. in a greenhouse the disease incidence is assessed.

[2] = test system: Pyrenophora teres (Helminthosorium); assay: Example B-10: effect against Pyrenophora teres (Helminthosorium) / barley (net blotch on barley); settings: 48 h, 0.02% active substance, spray, barley cv. Regina, inoculated two days after application, assessed after 2 days incubation, read-out: control of the fungal infection
Procedure: Effect Against Pyrenophora teres (Helminthosorium)/Barley (Net Blotch on Barley) 1 week old barley plants cv. Regina are treated with a formulated test compound (0.02% active substance) in a spray chamber. Two days. after application barley plants are inoculated by spraying a spore suspension (3×10^4 conidia/ml) on the test plants. After an incubation period of 2 days at +20° C. and 95% r.h. the disease incidence is assessed.

Septoria nodorum = assay: Example B-12: effect against Septoria nodorum / wheat (Septoria leaf spot on wheat); settings: Parastagonospora nodorum, 192 h; 0.02% active substance, spray; wheat cv. Arina; inoculated one day after application; assessed 8 days after inoculation; read-out: control of the fungal infection
Procedure: Effect Against Septoria nodorum/Wheat (Septoria Leaf Spot on Wheat) 1 week old wheat plants cv. Arina are treated with a formulated test compound (0.02% active substance) in a spray chamber. One day after application wheat plants are inoculated by spraying a spore suspension (6×10^5 conidia/ml) on the test plants. After an incubation period of 1 day at +22° C. and 95% r.h. plants are kept for 7 days at +22° C. and 60% r.h. in a greenhouse. The disease incidence is assessed 8 days after inoculation.

Botrytis cinerea [3] = assay: Example B-8: effect against Botrytis cinerea / tomato (Botrytis on tomatoes); settings: 96 h, 0.02% active substance, spray, tomato cv. Roter Gnom, inoculated two days after application, assessed after 4 days incubation, read-out: control of the fungal infection
Procedure: Effect Against Botrytis cinerea/Tomato (Botrytis on Tomatoes) 4 week old tomato plants cv. Roter Gnom are treated with the formulated test compound 0.02% active substance) in a spray chamber. Two days after application tomato plants are inoculated by spraying a spore suspension (1×10^5 conidia/ml) on the test plants. After an incubation period of 4 days at +20° C. and 95% r. h. in a greenhouse the disease incidence is assessed.

SMILES	pest or weed control at 0.02 % strength (Botrytis cinerea [1]) [%]	pest or weed control at 0.02 % strength [2] [%]	pest or weed control at 0.02 % strength (Septoria nodorum) [%]	pest or weed control at 0.02 % strength (Botrytis cinerea [3]) [%]
CC1=NN(c2cc(-c3ccnc(Nc4cccc(Cl)c4)n3)ccn2)C(=O)C1(C)C [1.01/028, 2-{4-[2-(3-Chloro-phenylamino)-pyrimidin-4-yl]-pyridin-2-yl}-4,4,5-trimethyl-2,4-dihydro-pyrazol-3-one]	> 70	> 70	> 70	> 70
CCC1(C)C(=O)N(c2cc(-c3ccnc(Nc4cccc(Cl)c4)n3)ccn2)N=C1C (stereo not shown) [1.03/028, 2-{4-[2-(3-Chloro-phenylamino)-pyrimidin-4-yl]-pyridin-2-yl}-4-ethyl-4,5-dimethyl-2,4-dihydro-pyrazol-3-one]	> 70	> 70	> 70	
CC1=NN(c2cc(-c3ccnc(Nc4cccc(Cl)c4)n3)ccn2)C(=O)C12CC2 [1.04/028, 5-{4-[2-(3-Chloro-phenylamino)-pyrimidin-4-yl]-pyridin-2-yl}-7-methyl-5,6-diaza-spiro[2.4]hept-6-en-4-one]	> 70	> 70		> 70
CC1=NN(c2cc(-c3ccnc(Nc4cccc(Cl)c4)n3)ccn2)C(=S)C1(C)C [1.06/028, 2-{4-[2-(3-Chloro-phenylamino)-pyrimidin-4-yl]-pyridin-2-yl}-4,4,5-trimethyl-2,4-dihydro-pyrazole-3-thione]	> 70	> 70	> 70	> 70
CC1(C)C=NN(c2cc(-c3ccnc(Nc4cccc(Cl)c4)n3)ccn2)C1=O [1.07/028, 2-{4-[2-(3-Chloro-phenylamino)-pyrimidin-4-yl]-pyridin-2-yl}-4,4-dimethyl-2,4-dihydro-pyrazol-3-one]	> 70	> 70	> 70	
COCC1=NN(c2cc(-c3ccnc(Nc4cccc(Cl)c4)n3)ccn2)C(=O)C1(C)C [1.08/028, 2-{4-[2-(3-Chloro-phenylamino)-pyrimidin-4-yl]-pyridin-2-yl}-5-methoxymethyl-4,4-dimethyl-2,4-dihydro-pyrazol-3-one]		> 70		
Cc1c(C)n(C)n(-c2cc(-c3ccnc(Nc4cccc(Cl)c4)n3)ccn2)c1=O [2.02/028, 2-{4-[2-(3-Chloro-phenylamino)-pyrimidin-4-yl]-pyridin-2-yl}-1,4,5-trimethyl-1,2-dihydro-pyrazol-3-one]		> 70	> 70	> 70
Cc1cc(=O)n(-c2cc(-c3ccnc(Nc4cccc(Cl)c4)n3)ccn2)n1C [2.03/028, 2-{4-[2-(3-Chloro-phenylamino)-pyrimidin-4-yl]-pyridin-2-yl}-1,5-dimethyl-1,2-dihydro-pyrazol-3-one]	> 70	> 70	> 70	
Cc1c(C=O)c(=O)n(-c2cc(-c3ccnc(Nc4cccc(Cl)c4)n3)ccn2)n1C [2.04/028, 2-{4-[2-(3-Chloro-phenylamino)-pyrimidin-4-yl]-pyridin-2-yl}-1,5-dimethyl-3-oxo-2,3-dihydro-1H-pyrazole-4-carbaldehyde]			> 70	
Cc1cn(C)n(-c2cc(-c3ccnc(Nc4cccc(Cl)c4)c3)ccn2)c1=O [2.05/028, 2-{4-[2-(3-Chloro-phenylamino)-pyridin-4-yl]-pyridin-2-yl}-1,4-dimethyl-1,2-dihydro-pyrazol-3-one]	> 70	> 70	> 70	> 70
CCn1c(C)c(C)c(=O)n1-c1cc(-c2ccnc(Nc3cccc(Cl)c3)c2)ccn1 [2.06/028, 2-{4-[2-(3-Chloro-phenylamino)-pyridin-4-yl]-pyridin-2-yl}-1-ethyl-4,5-dimethyl-1,2-dihydro-pyrazol-3-one]			> 70	> 70
COCN(c1cccc(Cl)c1)c1nccc(-c2ccnc(-n3c(=O)cc(C)n3C)c2)n1 [2.08/048, 2-(4-{2-[(3-Chloro-phenyl)-methoxymethyl-amino]-pyrimidin-4-yl}-pyridin-2-yl)-1,5-dimethyl-1,2-dihydro-pyrazol-3-one]	> 70	> 70		> 70
COCc1c(C)c(=O)n(-c2cc(-c3ccnc(Nc4cccc(Cl)c4)n3)ccn2)n1C [2.09/028, 2-{4-[2-(3-Chloro-phenylamino)-pyrimidin-4-yl]-pyridin-2-yl}-5-methoxymethyl-1,4-dimethyl-1,2-dihydro-pyrazol-3-one]	> 70	> 70	> 70	
COCc1cc(=O)n(-c2cc(-c3ccnc(Nc4cccc(Cl)c4)n3)ccn2)n1C [2.011/028, 2-{4-[2-(3-Chloro-phenylamino)-pyrimidin-4-yl]-pyridin-2-yl}-5-methoxymethyl-1-methyl-1,2-dihydro-pyrazol-3-one]		> 70		
COc1cc(C)nn1-c1cc(-c2ccnc(Nc3cccc(Cl)c3)n2)ccn1 [3.01/028, (3-Chloro-phenyl)-{4-[2-(5-methoxy-3-methyl-pyrazol-1-yl)-pyridin-4-yl]-pyrimidin-2-yl}-amine]		> 70	> 70	> 70
COc1c(C)cnn1-c1cc(-c2ccnc(Nc3cccc(Cl)c3)n2)ccn1 [3.012/028, (3-Chloro-phenyl)-{4-[2-(5-methoxy-4-methyl-pyrazol-1-yl)-pyridin-4-yl]-pyrimidin-2-yl}-amine]	> 70	> 70	> 70	
COCc1nn(-c2cc(-c3ccnc(Nc4cccc(Cl)c4)n3)ccn2)c(OC)c1C [3.013/028, (3-Chloro-phenyl)-{4-[2-(5-methoxy-3-methoxymethyl-4-methyl-pyrazol-1-yl)-pyridin-4-yl]-pyrimidin-2-yl}-amine]	> 70	> 70		
COCc1cc(OC)n(-c2cc(-c3ccnc(Nc4cccc(Cl)c4)n3)ccn2)n1 [3.014/028, (3-Chloro-phenyl)-{4-[2-(5-methoxy-3-methoxymethyl-pyrazol-1-yl)-pyridin-4-yl]-pyrimidin-2-yl}-amine]	> 70	> 70		
Cc1nn(-c2cc(-c3ccnc(Nc4cccc(Cl)c4)n3)ccn2)c(C)c1C [3.017/028, (3-Chloro-phenyl)-{4-[2-(3,4,5-trimethyl-pyrazol-1-yl)-pyridin-4-yl]-pyrimidin-2-yl}-amine]		> 70		
